Results taken from PMC12040169 (PLOS Biology, 2025).

Assay: in vitro
Settings: human, hela cells, % viability

Row | Compound | viability at 28.5 h, 10 µM [%] | viability at 28.5 h, 10 µM (bulk resorufin, single well) [%]
1 | Cc1nn(C)cc1-c1cncn1Cc1ccc2c(c1)CCCO2 [CBK281797] | 90.4 | 
2 | Cc1sc2ncn(CC(=O)NCCCN3CCCCC3)c(=O)c2c1C [CBK305831] | 96.7 | 
3 | CNC(=O)C1CCCCN1C(=O)c1cn(CCOC)c2ccccc12 (stereo not drawn) [CBK306308] | 94.8 | 
4 | CC1CCCCC1NC(=O)c1ncoc1-c1cccs1 (stereo not drawn) [CBK283973] | 84.8 | 
5 | Cc1ccc(N2C(=O)c3ccc(S(=O)(=O)c4cccc(C(=O)O)c4)cc3C2=O)c(C)c1 [CBK262783] | 86.2 | 
6 | C=CCNc1nccnc1-c1ccncc1 [CBK036845] | 90.7 | 
7 | CCCCN(C)c1c(C)nc2ccc(C(=O)N(C)CCCN(C)C)cn12 [CBK146006] | 103 | 
8 | CCC1CCCCN1C(=O)c1ccc(C(F)(F)F)cc1 (stereo not drawn) [CBK081165] | 107 | 
9 | O=C(N/N=C\c1cccc2ccccc12)c1ccc(CO)nc1 [CBK261377] | 104 | 
10 | Cc1ccccc1CN1CC[C@H]2[C@@H](C1)[C@H](c1ccsc1)CN2C(=O)c1ccc(F)cc1 [CBK285638] | 102 | 
11 | Cc1csc(N2CCN(C(=O)CCc3nc(C(C)C)no3)CC2)n1 [CBK305341] | 99.4 | 
12 | COCCn1nnnc1C(c1cc2cc(C)ccc2[nH]c1=O)N1CCN(C(=O)c2ccco2)CC1 (stereo not drawn) [CBK111562] | 80.3 | 
13 | COc1ccc(CSc2nc3sc4c(c3c(=O)n2Cc2ccccc2)CCN(Cc2ccccc2)C4)cc1 [CBK263714] | 85.1 | 
14 | O=C1NC(=S)NC(=O)C1=Cc1ccc(OCc2ccccc2F)c(Br)c1 [CBK264257] |  | 97.7
15 | COc1ccc(C(=O)Nc2nc(-c3ccc(OC)cc3)cs2)cc1 [CBK287325] | 99.2 | 
16 | CCC(=O)N1C[C@@H](N(C)C)[C@H](c2cn(C)c3ccccc23)C1 [CBK285008] | 91.3 | 
17 | Cc1ccc(C(=O)NCCC(=O)Nc2ccccn2)cc1NC(=O)c1ccco1 [CBK298328] | 92.2 | 
18 | COc1ncccc1C(=O)N1CCN(c2ccccc2)CC1 [CBK200166] | 103 | 
19 | COc1ccc(S(=O)(=O)N2CCC(C(=O)Nc3ccccc3SC)CC2)cc1C [CBK267960] | 96.2 | 
20 | O=C(Nc1ccc(N2CCNCC2)c2ccccc12)c1coc2c1C(=O)CCC2 [CBK038946T] | 81.5 | 
21 | O=C(O)Cc1csc(SCc2cc(F)cc3c2OC(c2ccccc2)OC3)n1 (stereo not drawn) [CBK295158] | 107 | 
22 | O=C(CSCc1ccccc1)Nc1ccc(S(=O)(=O)N2CCOCC2)cc1 [CBK087885] | 93.3 | 
23 | CC(O)CNC(=O)c1cn2cc(-c3cccs3)n(CC3CC3)c(=O)c2n1 (stereo not drawn) [CBK307117] | 81.3 | 

Row | Compound | viability at 28.5 h, 10 µM [%] | viability at 28.5 h, 10 µM (bulk resorufin, single well) [%]
24 | Cc1ccc(C2C(C(=O)c3ccccc3)=C(O)C(=O)N2CCC(=O)O)cc1 (stereo not drawn) [CBK286642] | 81.1 | 
25 | CN(C)C(=O)c1cc2cc(NC(=O)CC3COCCN3)ccc2s1 (stereo not drawn) [CBK306710] | 105 | 
26 | CN(C)CCCC(=O)N1CCN(C(=O)c2ccco2)CC1 [CBK144445] | 111 | 
27 | Cc1nc2ccc(C(=O)NCCCN3Cc4ccccc4C3)cc2[nH]1 [CBK283301] | 90.3 | 
28 | Cc1cnc(CNC(=O)c2ccc(-c3ccoc3)nc2)cn1 [CBK156267] | 109 | 
29 | O=C1C2CCCN2S(=O)(=O)c2ccccc2N1Cc1ccccc1 (stereo not drawn) [CBK284018] | 88.6 | 
30 | O=C(O)c1cc2c(s1)CN(C1CCCCC1)C2 [CBK286885] | 96.2 | 
31 | O=S(=O)(Nc1ccc2[nH]ccc2c1)c1cccnc1 [CBK156811] | 71 | 
32 | Clc1cncc(N2CCCC2)n1 [CBK083595] | 118 | 
33 | O=C(Cc1c[nH]c2ccccc12)NC1CCCC1 [CBK200238] | 76.1 | 
34 | COc1ccc([C@H]2CN(C(=O)c3ccccc3)[C@@H]3CCN(Cc4cccc(F)c4)C[C@H]23)cc1 [CBK285584] | 98.9 | 
35 | CC1=CC(=O)Nc2ccccc2S1 [CBK028872] | 118 | 
36 | COc1ccc(-c2noc(CSc3nc4ccccc4c(=O)n3-c3ccccc3)n2)cc1OC [CBK268667] | 100 | 
37 | O=C(O)c1cc2ncc(CCO)cn2n1 [CBK267635] | 99.6 | 
38 | CCc1noc(C)c1C(=O)Nc1cccc(Cn2cc(Cl)cn2)c1 [CBK268127] | 97.6 | 
39 | O=C(/C=C/c1ccco1)Nc1sc2c(c1C(=O)NCc1ccco1)CCC2 [CBK265616] | 104 | 
40 | CNC(=O)CSc1nc2ccccc2nc1NC(C)C [CBK107171] | 99.7 | 
41 | CO[C@H]1CC[C@H](C(=O)NC(c2ccccc2)c2nccn2C)CC1 (stereo partly drawn) [CBK283852] | 93.8 | 
42 | CCn1nccc1N1CCCC(NC(=O)CCc2ccccc2Cl)C1=O (stereo not drawn) [CBK305455] | 113 | 
43 | CCc1nc(-c2ccc(C)c(S(=O)(=O)N3CCN(c4ccccc4)CC3)c2)no1 [CBK294434] | 98.3 | 
44 | COc1cccc(C(=O)Oc2ccc3c(=O)c(-c4nc5ccccc5s4)c(C)oc3c2)c1 [CBK265540] | 103 | 
45 | CCOC(=O)CC1SC(NS(=O)(=O)c2ccc(Br)cc2)=NC1=O (stereo not drawn) [CBK014126] | 93.5 | 
46 | Cc1noc(-c2cn(C)nc2C2CCCCN2C(=O)C2CC2)c1C (stereo not drawn) [CBK283410] | 96.9 | 

Row | Compound | viability at 28.5 h, 10 µM [%] | viability at 28.5 h, 10 µM (bulk resorufin, single well) [%]
47 | Cc1cc(/C=C2/C(=N)N3N=C(Cc4ccccc4)SC3=NC2=O)c(C)n1-c1ccccc1 [CBK264318] | 100 | 
48 | c1cncc(CN2CCC(Oc3cncc(OCC4COc5ccccc5O4)n3)C2)c1 (stereo not drawn) [CBK084365] | 96.5 | 
49 | O=S(=O)(Nc1nnn[nH]1)c1ccc(-c2cnco2)s1 [CBK062394] | 109 | 
50 | CS(=O)(=O)c1ccc(-c2nccnc2N[C@@H]2CCN(Cc3ccccc3)C2)cc1 [CBK037667] | 102 | 
51 | Cn1cnnc1CNC(=O)N1CCN(Cc2cccs2)CC1 [CBK305045] | 86.3 | 
52 | Cc1cc2c(cc1C)N(C(=O)CSc1ncn[nH]1)C(C)(C)c1ssc(=S)c1-2 [CBK263786] | 96.3 | 
53 | Oc1ccc(/N=C/C=C/c2ccc(Cl)cc2Cl)cc1-c1nc2ccccc2s1 [CBK261242] | 107 | 
54 | CCC1CCCCN1C(=O)c1ccccc1OC (stereo not drawn) [CBK083205] | 99.4 | 
55 | O=C(NCCN1CCN(Cc2ccccc2Cl)CC1)Nc1ccccc1 [CBK268039] | 93.4 | 
56 | CC(C)Nc1cncc(OCCN2CCNCC2)n1 [CBK115601] | 93.6 | 
57 | O=C1OC[C@@H](c2ccccc2)N1C(=O)[C@@H]1CN(Cc2ccccc2)C[C@H]1c1cc2ccccc2o1 [CBK022599C] | 111 | 
58 | Cc1ccccc1S(=O)(=O)Nc1nccnc1-c1ccc2c(c1)OCO2 [CBK050941] | 122 | 
59 | C=CCN1C(=O)CC2(C1=O)C(=O)N(CC)c1ccc(F)cc12 (stereo not drawn) [CBK075316] | 115 | 
60 | CC1c2ccsc2CCN1S(C)(=O)=O (stereo not drawn) [CBK023574] | 86.2 | 
61 | CC(C)COC(=O)N1CCC(C(=O)NC(c2ccc(Cl)cc2)c2cnccn2)CC1 (stereo not drawn) [CBK059668] | 99.2 | 
62 | O=C(Nc1cccc2ccccc12)C(c1ccccc1)N1CCOCC1 (stereo not drawn) [CBK269388] | 102 | 
63 | CC(=O)Nc1ccc(CNc2ncccc2OC(F)F)cc1 [CBK306016] | 95 | 
64 | Cc1nc2cc(OCc3nc(C(=O)N(C)CCN(C)C)co3)ccc2s1 [CBK306685] | 106 | 
65 | Cc1nnc(CSc2nnc(-c3ccc(Cl)cc3)[nH]2)o1 [CBK270241] | 102 | 
66 | Nc1ncnc2c1ncn2C1OC(CO)C(O)C1O (stereo not drawn) [CBK024679] | 92.6 | 
67 | CN(C)c1cccc(-c2cnc3[nH]c(=O)n(CCCO)c3n2)c1 [CBK065052] | 102 | 
68 | COc1ccc(CCNc2ncnc3c2cnn3-c2ccc(Cl)cc2)cc1OC [CBK265804] | 105 | 
69 | C#CCN(C)CC[C@@H]1CC[C@H](O)[C@@H](C(=O)NC(C)C)O1 [CBK288718] | 109 | 

Row | Compound | viability at 28.5 h, 10 µM [%] | viability at 28.5 h, 10 µM (bulk resorufin, single well) [%]
70 | COc1ccc(CCNC(=S)NN2CCN(C)CC2)cc1OC [CBK266884] | 93.2 | 
71 | O=C(NC(Cc1cccs1)c1nccs1)c1cc[nH]n1 (stereo not drawn) [CBK285052] | 87.4 | 
72 | O=C(CN1CCC(C(=O)c2ccc(F)cc2)CC1)Nc1ncccn1 [CBK149131] | 95.7 | 
73 | O=C(CS(=O)(=O)c1ccccc1)Nc1cnc(-c2ccc(F)cc2)c(-c2ccoc2)n1 [CBK037168] | 107 | 
74 | CC(=O)c1ccccc1OCCOCCN1CCCC(C)C1 (stereo not drawn) [CBK269625C] | 106 | 
75 | Cc1cc(C)c2[nH]c(C(=O)NCc3c(C)n[nH]c3C)c(C)c2c1 [CBK283254] | 87.4 | 
76 | Cn1ccc2ccc(C(=O)Nc3nccs3)cc21 [CBK287910] | 106 | 
77 | Cc1nccn1CC1(O)CCN(Cc2cn(C)c3ccccc23)CC1 [CBK285017] | 102 | 
78 | CC1(C)CC(CN)(c2ccccc2)CCO1 (stereo not drawn) [CBK025559C] | 94.9 | 
79 | Cc1ccc(C(C)C(=O)N2CCC(O)(c3ccccn3)CC2)cc1 (stereo not drawn) [CBK283787] | 86.7 | 
80 | CCn1c(C)nn(-c2nc3c(Cl)cccc3s2)c1=O [CBK026010] | 100 | 
81 | Cc1ccc(C2(O)CC3CCC(C2)N3C(=O)c2ccncc2)cc1 (stereo not drawn) [CBK284609] | 100 | 
82 | OCCOc1nc2ccccc2s1 [CBK001812] | 97.2 | 
83 | c1csc(C2Nc3ccccc3C3=NCCCN32)c1 (stereo not drawn) [CBK284489] | 99.2 | 
84 | CCCC(=O)NC(NC(=S)Nc1ccccc1Cl)C(Cl)(Cl)Cl (stereo not drawn) [CBK261026] | 106 | 
85 | O=C(c1ccc2[nH]ccc2c1)N1CCc2ccccc21 [CBK200269] | 101 | 
86 | CC(C)Oc1ccccc1CN(C)C(C)c1ccc(S(N)(=O)=O)cc1 (stereo not drawn) [CBK305436] | 94.4 | 
87 | O=c1[nH]c2cc(NCCO)c([N+](=O)[O-])cc2[nH]1 [CBK009794] | 93.2 | 
88 | CC(CN(C)C(=O)Cn1cccc(C(=O)Nc2ccc(F)cc2)c1=O)c1ccccc1 (stereo not drawn) [CBK286065] | 92.5 | 
89 | COc1ccccc1C(=O)N1CCN(Cc2cc(OC)c(O)c(OC)c2)CC1 [CBK263484] | 101 | 
90 | O=C(O)CCC(=O)N1CCC(Cn2cncn2)(C2CCCCC2)CC1 [CBK136809] | 94.8 | 
